Source: patent US20130023001A1, “USE OF A SUBSTRATE IN A METHOD FOR MEASURING THE ACTIVITY OF PROTEOLYTIC ENZYMES” (priority 2011, published 2013)

Assays:
Assay type in all cases: biochemical
[1] = system: unfractionated heparin, Calciparine®; test: evaluation method for heparin neutralization by anti-Xa activity (chromogenic para-nitroaniline substrate) with unfractionated heparin; conditions: for percentage neutralization of Calciparine®, 100×(1−ΔA1/ΔA2): heparin concentrations between 0 and 1.67 IU/ml
Description: (§1) Before referring to the diagrams of the figures, the evaluation method used to quantify the neutralization of the glycosaminoglycans in a blood sample, and in particular a plasma, will be described. This method makes it possible to use both unfractionated heparins and low-molecular-weight heparins. In addition, the method endeavors to test the activity of factor Xa, located at the crossroads of two enzymatic cascades resulting in the formation of thrombin. Moreover, antithrombin, which is a natural inhibitor of thrombin generation, controls the reaction. As soon as it appears, factor Xa couples to its natural substrate, prothrombin, so as to form thrombin. The heparin contained in the sample forms, itself, a complex with antithrombin, which complex promotes the inhibition of factor Xa.
(§2) Thus, a chromogenic substrate based on para-nitroaniline, which factor Xa hydrolyzes, is used and the release of the para-nitroaniline, which can be measured optically, is then inversely proportional to the concentration of heparin present in the medium. A measurement of the anti-Xa activity is thus deduced therefrom.
In this first example, the heparin used is an unfractionated calcium heparin sold under the brand name: “Calciparine®”. According to the evaluation method, the anti-Xa activity is recorded and transferred onto the y-axis, as a function of the heparin concentration of the medium. The heparin concentrations vary between 0 and 1.67 IU/ml and are relatively close to the therapeutic concentrations. The first inclined curve 10 corresponds to a first series of measurements wherein physiological saline is added to the blood sample in addition to the para-nitroaniline-based substrate, while the second inclined curve 12 corresponds to a second series of measurements wherein a neutralizing synthetic polymer, polybrene, intended to neutralize the anticoagulant effects of the heparin, is added to the blood sample. This compound is well known for its effects on heparin and is usually employed in methods for measuring the activity of proteolytic enzymes in order to actually dispense with the anticoagulant effect of heparin.
(§3) The percentage neutralization by the synthetic polymer is determined as being the ratio of the difference in the variation in anti-Xa activity in the medium containing the physiological saline and in the medium containing the neutralizing agent, between two heparin concentrations, and only the variation in activity in the medium containing the physiological saline, between the same two heparin concentrations, this ratio being multiplied by 100 in order to obtain the result as percentage neutralization.
(§4) The percentage neutralization can also be written more compactly: 100×(1−ΔA1/ΔA2), wherein ΔA1 corresponds to the variation in activity in the presence of neutralizing compound and ΔA2 to the variation in the presence of physiological saline. Thus, the parallel measurement of the variation in the presence of physiological saline makes it possible to establish the reference in each series of measurements.

[2] = system: low-molecular-weight heparin, Fragmine®; test: evaluation method for heparin neutralization by anti-Xa activity (chromogenic para-nitroaniline substrate) with low-molecular-weight heparin
Description: as §1, §2, §3, §4
Still in this first part of the description, the abovementioned evaluation method was implemented with a low-molecular-weight heparin, Fragmine®.

thrombin = target: T1, thrombin (Homo sapiens, UniProt P00734); test: measuring method: thrombin generation fluorescent signal in a blood sample containing heparin
T1 construct: from tissue; host or cells: blood sample (plasma) containing heparin; thrombin generation triggered with tissue factor and calcium
Method: According to one embodiment of the measuring method, the enzymatic activity monitored is that of thrombin generation. The principle lies in the monitoring of the measurement of a fluorescent signal after the enzyme substrate has been brought into contact with a blood sample containing heparin, and the reaction conditions allow the thrombin to cleave the substrate between the peptide part and the fluorophore, in this case rhodamine110.
In order to implement the method, a blood sample of 40 μL containing heparin is first of all introduced into a microcuvette. 10 μL of the enzyme substrate in accordance with the invention mixed with an initiating reagent, and 10 μL of activating reagent are added thereto. The initiating reagent is […] and it has a concentration of 16.7×10^−3 mol.L^−1. The activating reagent is tissue factor at a concentration of 10^−12 mol.L^−1.
Next, an excitation signal having a predetermined wavelength is emitted through the microcuvette and the response to the excitation signal is recorded optically over time. Thus, the greater the amount of thrombin generated, the greater the signal response.
According to one particular embodiment, the enzyme substrate chosen is that corresponding to the embodiment variant V(3) of the first part of the detailed description, and of synthetic formula (R^2−GGR)2-Rhod110. […]

Row | Substance | percentage neutralization of Calciparine®, 100×(1−ΔA1/ΔA2) [1] [%] | percentage neutralization of Fragmine® ([2]; heparin 0.42 IU/ml) [%] | percentage neutralization of Fragmine® ([2]; heparin 0.83 IU/ml) [%] | percentage neutralization of Fragmine® ([2]; heparin 1.25 IU/ml) [%] | percentage neutralization of Fragmine® ([2]; heparin 1.67 IU/ml) [%] | strength of the thrombin activity signal relative to the series of measurements without heparin (thrombin; heparin 1.5 IU/ml, after 30 minutes, FIG. 7) [%] | percentage neutralization of Calciparine® ([1]; heparin 0.42 IU/ml) [%] | percentage neutralization of Calciparine® ([1]; heparin 0.83 IU/ml) [%] | percentage neutralization of Calciparine® ([1]; heparin 1.25 IU/ml) [%] | percentage neutralization of Calciparine® ([1]; heparin 1.67 IU/ml) [%] | effect of heparin on the thrombin activity measurement (signal curve with versus without heparin) (thrombin; unfractionated heparin 1.5 IU/ml, FIG. 5)
1 | (EtM-VR)2-Rhod110 [V(2)] | ~100 | 71 | 78 | 79 | 78 | – | – | – | – | – | –
2 | EtM-VR-Rhod110-Ac [reference compound] | – | – | – | – | – | ~3 | – | – | – | – | –
3 | R^2GGR-Rhod110-Benzoic [V(5)] | – | 77 | 75 | 75 | 74 | – | 100 | 97 | 98 | 98 | –
4 | R^2GGR-Rhod110-R [V(1)] | ~100 | 64 | 65 | 64 | 72 | – | – | – | – | – | –
5 | (R^2GGR)2-Rhod110 [V(3)] | – | 88 | 90 | 91 | 91 | – | 90 | 93 | 94 | 96 | very small effect
6 | R^2GGR-Rhod110-H [V(4)] | – | 83 | 83 | 72 | 64 | – | 96 | 90 | 89 | 80 | –
